Experimental data: patent US9981964B2 (Agency for Science, Technology and Research, priority 2013, dated 2018)

These compounds were tested on HEK293-STF3A cells (assay: STF3A assay (STF luciferase reporter in Wnt3A-expressing HEK293 cells)). Settings: Homo sapiens, 24 h, 1 day of treatment.
Assay type: cell-based
Description: HEK293-STF cell line was modified from Human embryonic kidney cell line HEK293 transfected with the STF reporter. HEK293-STF3A cell line was further modified from HEK293-STF cell line to express Wnt3A. This cell line was used to identify compounds that regulate either early or late signaling components of the Wnt pathway. These two cell lines were obtained from David Virshup's laboratory, Duke-NUS. L-Wnt3A (ATCC, #CRL-2647) cell line was used for providing Wnt3A conditioned media. The three cell lines were grown in DMEM with 10% FBS incubated in 37° C. with 5% CO2.
2×10^4 HEK293-STF3A cells in 75 μl culture media were seeded in each well of white 96 well plates (Greiner #655098) and incubated overnight at 37° C. 25 μl serially diluted compound was added to the cells to give final concentration of 50 μM to 1.5 nM. After 1 day of treatment, 100 μl of Steady-Glo Luciferase Assay reagent (#E2520, Promega) was added to each well and incubated for 10 minutes at room temperature. Luminescence was measured using Tecan Safire2 plate reader.

`CC(C(=O)Nc1ccc(-c2ccc(F)nc2)cn1)N1CCCC2=C1C(=O)N(C)C2=O` (stereo not shown) [Compound 96, N-(6′-fluoro-3,3′-bipyridin-6-yl)-2-(6-methyl-5,7-dioxo-2,3,4,5,6,7-hexahydro-1H-pyrrolo[3,4-b]pyridin-1-yl)propanamide] and `CC(C(=O)Nc1ccc(-c2cncc(F)c2)cn1)N1CCCC2=C1C(=O)N(C)C2=O` (stereo not shown) [Compound 139, N-(5′-fluoro-3,3′-bipyridin-6-yl)-2-(6-methyl-5,7-dioxo-2,3,4,5,6,7-hexahydro-1H-pyrrolo[3,4-b]pyridin-1-yl)propanamide] cannot be ordered by IC50: under 1000 nM for the first, under 100 nM for the second.

`CN1C(=O)C2=C(C1=O)N(CC(=O)Nc1cc(F)c(-c3cccnc3)cn1)CCC2` [Compound 155, N-(4-fluoro-3,3′-bipyridin-6-yl)-2-(6-methyl-5,7-dioxo-2,3,4,5,6,7-hexahydro-1H-pyrrolo[3,4-b]pyridin-1-yl)acetamide] and `CN1C(=O)C2=C(C1=O)N(CC(=O)Nc1cnc(-c3cccnc3)cn1)CCC2` [Compound 21, 2-(6-methyl-5,7-dioxo-2,3,4,5,6,7-hexahydro-1H-pyrrolo[3,4-b]pyridin-1-yl)-N-(5-(pyridin-3-yl)pyrazin-2-yl)acetamide] cannot be ordered by IC50: under 100 nM for the first, under 100 nM for the second.

`CN1C(=O)C2=C(C1=O)N(CC(=O)Nc1ccc(-c3cnccn3)cc1)CCC2` [Compound 118, 2-(6-methyl-5,7-dioxo-2,3,4,5,6,7-hexahydro-1H-pyrrolo[3,4-b]pyridin-1-yl)-N-(4-(pyrazin-2-yl)phenyl)acetamide] and `CN1C(=O)C2=C(C1=O)N(CC(=O)Nc1ccc(-c3ccccn3)cc1)CCC2` [Compound 76, 2-(6-methyl-5,7-dioxo-2,3,4,5,6,7-hexahydro-1H-pyrrolo[3,4-b]pyridin-1-yl)-N-(4-(pyridin-2-yl)phenyl)acetamide] cannot be ordered by IC50: under 100 nM for the first, under 100 nM for the second.

`O=C(CN1CCCC2=C1C(=O)N(C1CC1)C2=O)Nc1ccc(-c2cncc(F)c2)nc1` [Compound 87, 2-(6-cyclopropyl-5,7-dioxo-2,3,4,5,6,7-hexahydro-1H-pyrrolo[3,4-b]pyridin-1-yl)-N-(5′-fluoro-[2,3′-bipyridin]-5-yl)acetamide] and `O=C(CN1CCCC2=C1C(=O)N(C1CC1)C2=O)Nc1ccc(-c2cncnc2)nc1` [Compound 102, 2-(6-cyclopropyl-5,7-dioxo-2,3,4,5,6,7-hexahydro-1H-pyrrolo[3,4-b]pyridin-1-yl)-N-(6-(pyrimidin-5-yl)pyridin-3-yl)acetamide] cannot be ordered by IC50: under 100 nM for the first, under 100 nM for the second.

`O=C(CN1CCCC2=C1C(=O)N(C1CC1)C2=O)Nc1ccc(-c2cc(F)ccn2)cn1` [Compound 156, 2-(6-cyclopropyl-5,7-dioxo-2,3,4,5,6,7-hexahydro-1H-pyrrolo[3,4-b]pyridin-1-yl)-N-(4-fluoro-[2,3′-bipyridin]-6′-yl)acetamide] and `O=C(CN1CCCC2=C1C(=O)N(C1CC1)C2=O)Nc1ccc(-c2ccc(F)nc2)cn1` [Compound 105, 2-(6-cyclopropyl-5,7-dioxo-2,3,4,5,6,7-hexahydro-1H-pyrrolo[3,4-b]pyridin-1-yl)-N-(6′-fluoro-[3,3′-bipyridin]-6-yl)acetamide] cannot be ordered by IC50: under 100 nM for the first, under 100 nM for the second.

`CN1C(=O)C2=C(C1=O)N(CC(=O)Nc1ccc(-c3ccccc3F)nn1)CCC2` [Compound 84, N-(6-(2-fluorophenyl)pyridazin-3-yl)-2-(6-methyl-5,7-dioxo-2,3,4,5,6,7-hexahydro-1H-pyrrolo[3,4-b]pyridin-1-yl)acetamide] and `CN1C(=O)C2=C(C1=O)N(CC(=O)Nc1ccc(-c3cccnc3)nn1)CCC2` [Compound 25, 2-(6-methyl-5,7-dioxo-2,3,4,5,6,7-hexahydro-1H-pyrrolo[3,4-b]pyridin-1-yl)-N-(6-(pyridin-3-yl)pyridazin-3-yl)acetamide] cannot be ordered by IC50: under 100 nM for the first, under 100 nM for the second.

`Cc1nc(NC(=O)CN2CCCC3=C2C(=O)N(C2CC2)C3=O)ccc1-c1cccnc1` [Compound 125, 2-(6-cyclopropyl-5,7-dioxo-2,3,4,5,6,7-hexahydro-1H-pyrrolo[3,4-b]pyridin-1-yl)-N-(2-methyl-[3,3′-bipyridin]-6-yl)acetamide] and `Cc1ccncc1-c1ccc(NC(=O)CN2CCCC3=C2C(=O)N(C2CC2)C3=O)nc1` [Compound 111, 2-(6-cyclopropyl-5,7-dioxo-2,3,4,5,6,7-hexahydro-1H-pyrrolo[3,4-b]pyridin-1-yl)-N-(4′-methyl-[3,3′-bipyridin]-6-yl)acetamide] cannot be ordered by IC50: under 1000 nM for the first, under 1000 nM for the second.

`Cc1cc(NC(=O)CN2CCCC3=C2C(=O)N(C)C3=O)ccc1-c1ccccc1` [Compound 82, 2-(6-methyl-5,7-dioxo-2,3,4,5,6,7-hexahydro-1H-pyrrolo[3,4-b]pyridin-1-yl)-N-(2-methyl-[1,1′-biphenyl]-4-yl)acetamide] and `CN1C(=O)C2=C(C1=O)N(CC(=O)Nc1cnc(-c3ccccc3)cn1)CCC2` [Compound 12, 2-(6-methyl-5,7-dioxo-2,3,4,5,6,7-hexahydro-1H-pyrrolo[3,4-b]pyridin-1-yl)-N-(5-phenylpyrazin-2-yl)acetamide] cannot be ordered by IC50: under 100 nM for the first, under 100 nM for the second.

`Cc1cc(-c2cccnc2)ncc1NC(=O)CN1CCCC2=C1C(=O)N(C1CC1)C2=O` [Compound 140, 2-(6-cyclopropyl-5,7-dioxo-2,3,4,5,6,7-hexahydro-1H-pyrrolo[3,4-b]pyridin-1-yl)-N-(4-methyl-2,3′-bipyridin-5-yl)acetamide] and `Cc1cc(NC(=O)CN2CCCC3=C2C(=O)N(C2CC2)C3=O)cnc1-c1cccnc1` [Compound 133, 2-(6-cyclopropyl-5,7-dioxo-2,3,4,5,6,7-hexahydro-1H-pyrrolo[3,4-b]pyridin-1-yl)-N-(3-methyl-2,3′-bipyridin-5-yl)acetamide] cannot be ordered by IC50: under 10000 nM for the first, under 1000 nM for the second.

`COc1ccc(-c2ccc(NC(=O)CN3CCCC4=C3C(=O)N(C3CC3)C4=O)cn2)cn1` [Compound 145, 2-(6-cyclopropyl-5,7-dioxo-2,3,4,5,6,7-hexahydro-1H-pyrrolo[3,4-b]pyridin-1-yl)-N-(6′-methoxy-2,3′-bipyridin-5-yl)acetamide] and `O=C(CN1CCCC2=C1C(=O)N(C1CC1)C2=O)Nc1ccc(-c2ccc(F)nc2)nc1` [Compound 124, 2-(6-cyclopropyl-5,7-dioxo-2,3,4,5,6,7-hexahydro-1H-pyrrolo[3,4-b]pyridin-1-yl)-N-(6′-fluoro-[2,3′-bipyridin]-5-yl)acetamide] cannot be ordered by IC50: under 100 nM for the first, under 100 nM for the second.

`CN1C(=O)C2=C(C1=O)N(CC(=O)Nc1ccc(-c3cccnc3)nc1)CCC2` [Compound 10, N-([2,3′-bipyridin]-5-yl)-2-(6-methyl-5,7-dioxo-2,3,4,5,6,7-hexahydro-1H-pyrrolo[3,4-b]pyridin-1-yl)acetamide] and `CN1C(=O)C2=C(C1=O)N(CC(=O)Nc1ccc(-c3ccncc3)nc1)CCC2` [Compound 122, N-(2,4′-bipyridin-5-yl)-2-(6-methyl-5,7-dioxo-2,3,4,5,6,7-hexahydro-1H-pyrrolo[3,4-b]pyridin-1-yl)acetamide] cannot be ordered by IC50: under 100 nM for the first, under 1000 nM for the second.

`Cc1cncc(-c2ccc(NC(=O)CN3CCCC4=C3C(=O)N(C)C4=O)cn2)c1` [Compound 149, 2-(6-methyl-5,7-dioxo-2,3,4,5,6,7-hexahydro-1H-pyrrolo[3,4-b]pyridin-1-yl)-N-(5′-methyl-[2,3′-bipyridin]-5-yl)acetamide] and `Cc1cncc(-c2ccc(NC(=O)CN3CCCC4=C3C(=O)N(C)C4=O)nn2)c1` [Compound 41, 2-(6-methyl-5,7-dioxo-2,3,4,5,6,7-hexahydro-1H-pyrrolo[3,4-b]pyridin-1-yl)-N-(6-(5-methylpyridin-3-yl)pyridazin-3-yl)acetamide] cannot be ordered by IC50: under 100 nM for the first, under 100 nM for the second.

`C[C@@H](C(=O)Nc1ccc(-c2cccnc2)nc1)N1CCCC2=C1C(=O)N(C)C2=O` (single isomer, unassigned) [Compound 116] and `CC(C(=O)Nc1ccc(-c2ccccc2)nn1)N1CCCC2=C1C(=O)N(C)C2=O` (stereo not shown) [Compound 13, 2-(6-methyl-5,7-dioxo-2,3,4,5,6,7-hexahydro-1H-pyrrolo[3,4-b]pyridin-1-yl)-N-(6-phenylpyridazin-3-yl)propanamide] cannot be ordered by IC50: under 100 nM for the first, under 100 nM for the second.

`O=C(CN1CCCC2=C1C(=O)N(C1CC1)C2=O)Nc1ccc(-c2cccnc2F)cn1` [Compound 104, 2-(6-cyclopropyl-5,7-dioxo-2,3,4,5,6,7-hexahydro-1H-pyrrolo[3,4-b]pyridin-1-yl)-N-(2′-fluoro-[3,3′-bipyridin]-6-yl)acetamide] and `COc1ccc(-c2ccc(NC(=O)CN3CCCC4=C3C(=O)N(C3CC3)C4=O)nc2)nc1` [Compound 130, 2-(6-cyclopropyl-5,7-dioxo-2,3,4,5,6,7-hexahydro-1H-pyrrolo[3,4-b]pyridin-1-yl)-N-(5-methoxy-[2,3′-bipyridin]-6′-yl)acetamide] cannot be ordered by IC50: under 100 nM for the first, under 100 nM for the second.

`CN1C(=O)C2=C(C1=O)N(CC(=O)Nc1ccc(-c3cncc(F)c3)nn1)CCC2` [Compound 72, N-(6-(5-fluoropyridin-3-yl)pyridazin-3-yl)-2-(6-methyl-5,7-dioxo-2,3,4,5,6,7-hexahydro-1H-pyrrolo[3,4-b]pyridin-1-yl)acetamide] and `Cc1ccc(-c2ccc(NC(=O)CN3CCCC4=C3C(=O)N(C)C4=O)cn2)cn1` [Compound 24, 2-(6-methyl-5,7-dioxo-2,3,4,5,6,7-hexahydro-1H-pyrrolo[3,4-b]pyridin-1-yl)-N-(6′-methyl-[2,3′-bipyridin]-5-yl)acetamide] cannot be ordered by IC50: under 100 nM for the first, under 100 nM for the second.

`CN1C(=O)C2=C(C1=O)N(CC(=O)Nc1ncc(-c3ccccc3)cn1)CCC2` [Compound 36, 2-(6-methyl-5,7-dioxo-2,3,4,5,6,7-hexahydro-1H-pyrrolo[3,4-b]pyridin-1-yl)-N-(5-phenylpyrimidin-2-yl)acetamide] gave an IC50 of under 100 nM.
